# Measurements reported in patent US11179372B2, “Isoxazoline solution containing vitamin E for use with sanitized drinking water” (Intervet Inc., priority 2015, dated 2021).
# Tests used:
# [1] = Solubility and mixing of protectors in the base pharmaceutical composition; details: for Solubility in the base pharmaceutical composition: 0.95% w/w Fluralaner in Transcutol V and Tween 80 25:75
# Experimental: To the base of a pharmaceutical composition as described herein, comprising isoxazoline, solvent, and surfactant, different compounds were added as protectors to prevent breakdown of isoxazoline when diluted in water with a water sanitizer such as hypochlorite.
# Where the protector amount was zero, this sample served as unprotected control sample. The Fluralaner level was determined using UHPLC. The alpha-tocopherol used was alpha-tocopherol EP (Fluka).
# For samples containing a protector, Fluralaner was added to a mixture of Transcutol V, Tween 80 and protector, and then mixed to dissolve.
# [2] = Accelerated stability testing of pharmaceutical composition comprising a protector; type: physicochemical; details: for Appearance of the pharmaceutical composition with protector on storage: stability results up to 4 months, tests terminated
# Experimental: Similar to the experiments described in Example 3 above, where the effect of water quality on Fluralaner-containing medicated drinking water was tested; here samples of the pharmaceutical composition were tested for an effect of the addition of a protector, on their stability during prolonged storage.
# To test the long term stability of the pharmaceutical composition with a protector, some samples were stored under conditions of accelerated ageing. Samples of the pharmaceutical composition with or without one of the protectors, were filled out in portions of 7 gram each, in 10 ml glass vials, sealed with rubber stoppers, and stored under different conditions: 2-8° C.; 30° C./65% RH; 40° C./75% RH, and 50° C. […]
# [3] = Prevention of degradation by oxidizing sanitizer (hypochlorite) in medicated drinking water; type: physicochemical; details: for Colour during incubation in sanitized water: a few days into the incubation
# Experimental: The Fluralaner level was determined using UHPLC. The alpha-tocopherol used was alpha-tocopherol EP (Fluka).
# To prepare the test samples, the required amounts of Transcutol and Tween were measured, combined in a beaker at room temperature, and mixed magnetically. Next, when no protector was added, the required amount of Fluralaner was weighed, added, and mixed until complete dissolution, which usually required about 10 minutes, at 70% speed. […] The complete dissolution was verified visually. Next the density of the resulting solution was checked with a Densimeter, at 20° C.
# To test the capacity of the different protectors to prevent degradation of Fluralaner in medicated drinking water by an oxidising sanitizer, samples of the pharmaceutical composition as prepared above were diluted to different concentrations, and incubated with different amounts of hypochlorite. Concentrations of Fluralaner in medicated drinking water used were: 1, 5, and 10 μg/ml.
# The hypochlorite used was from a 13% sodium hypochlorite solution (Acros Organics), which was prepared into samples with a concentration of hypochlorite of: 0, 0.5, 2, 5, or 10 ppm, wherein 1 ppm equals 20 μM. Samples without hypochlorite served as positive controls. While the dilutions of hypochlorite were made in purified water, one additional sample at 5 ppm hypochlorite was prepared in standard tap water (Angers, France). Control samples were tested at day zero, all others were tested after an incubation for 7 days at 40° C./75% RH.
# The concentration of protector in the test sample was dependent of the dilution factor of the concentrated Fluralaner composition applied: 1:10,000, 1:2000, or 1:1000, respectively.
SMILES,Solubility in the base pharmaceutical composition [1],Appearance of the pharmaceutical composition with protector on storage [2],Colour during incubation in sanitized water [3],also measured
"Cc1cc(C(C)(C)C)c(O)c(C(C)(C)C)c1 [BHT, butylated hydroxytoluene]",soluble,discoloration,colour change did develop,
"COc1ccc(O)c(C(C)(C)C)c1 [BHA, butylated hydroxyanisole]",soluble,discoloration,colour change did develop,
Cc1c(C)c2c(c(C)c1O)CC[C@@](C)(CCC[C@H](C)CCC[C@H](C)CCCC(C)C)O2 [alpha-tocopherol],,,,"Stability of pharmaceutical composition, interaction by protector ([2]; stability data up to 18 months): lack of interaction; Level of alpha-tocopherol in pharmaceutical composition on storage ([2]; up to 8 months, 2-8° C., 30° C./65% RH, 40° C./75% RH, 50° C.): no significant reduction; Protection of Fluralaner from degradation in sanitized drinking water ([3]; Fluralaner 1 μg/ml and 10 ppm hypochlorite, 7 days): could not protect; Protection of Fluralaner from degradation in sanitized drinking water ([3]; Fluralaner at 5 or 10 μg/ml, up to 7 days, 40° C., up to 10 ppm hypochlorite): completely protect"
"O=S([O-])[O-].[Na+].[Na+] [Na-sulphite, Sodium sulphite]",not soluble,,,

# Further lines, with some results ahead:
Solubility in the base pharmaceutical composition [1],SMILES,Appearance of the pharmaceutical composition with protector on storage [2],Colour during incubation in sanitized water [3],also measured
soluble,"CCCCCCCCCCCCOC(=O)c1cc(O)c(O)c(O)c1 [Lauryl gallate, dodecyl gallate]",,,Appearance after mixing in the base pharmaceutical composition [1]: orange coloration; Appearance of the pharmaceutical composition with protector ([2]; shortly after preparation): orange coloration appeared
not soluble,"O=S([O-])S(=O)(=O)[O-].[Na+].[Na+] [Na-metabisulfite, Sodium metabisulfite]",,,
